What all share (assay): NCI-60 cell line screen, 48 h
For test [1], the system named is SF-295 CNS.
Test [2] deals with HCC-2998 colon.
The test system of test [3] is EKVX NSCLC.
Test [4] deals with IGROV1 ovarian.
Test [5] deals with HT29 colon.
Test [6] concerns SN12C renal.
Test [7] concerns HS 578T breast.
Test [8] has as its system SNB-19 CNS.
Test [9] has as its system DU-145 prostate.
For test [10], the system named is OVCAR-8 ovarian.

“And” between values parts separate entries of the source, which are not always exact repeats. Equal values may be shown once.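 Cells were grown in 96-well plates and exposed to each compound for 48 hours at five concentrations; endpoints were interpolated linearly between bracketing concentrations, or set to the highest concentration if not reached. GI50 = concentration required for 50% inhibition of growth. TGI is the concentration that stops growth completely.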

On to `COP(=O)(O)/C=C/C(NC(=O)C(Cl)(Cl)Cl)c1ccccc1` (stereo not drawn), for which the TGI in test [1], in [2], in test [3], in [4], in test [5] and in [6] was > 100 µM each time. Besides, the TGI in test [7], in test [8], in test [9] and in [10] was > 100 µM in each case.

As for `C/C(N=Nc1nc2ccccc2s1)=C1/C=CC=CN1O`, the TGI was 3.72 µM in test [1]; 0.0978 µM in test [2]; 6.03 µM in [3]; > 100 µM in [4]; > 100 µM in test [5]; > 100 µM in test [6]. The TGI in test [7], in test [8], in [9] and in test [10] was > 100 µM each time.

Regarding `CN(C)c1nc(=NCc2ccncc2)ss1`, the TGI was > 100 µM in test [1]; > 100 µM in [2]; > 100 µM in test [3]; > 100 µM in test [4]; 38.5 µM in [5]; 36 µM in test [6]. The TGI in [7] is 70.3 µM; in test [8], > 100 µM; in test [9], > 100 µM; in test [10] it was 34.6 µM. In addition, the GI50 in [9] is > 100 µM.

In the case of `CC(C)=CCc1c2c(c3occ(-c4ccc(O)c(O)c4)c(=O)c3c1O)C=CC(C)(C)O2`, the TGI in test [1] was 12.8 µM; in [2] it was 2.45 µM; in test [3], 17.3 µM; in [4], 6 µM; in [5], 3.84 µM; in [6] it was 3.07 µM. Moreover, the TGI in [7] was 3.73 µM; in [8], 5.02 µM; in test [9] it was 9.32 µM; in test [10], 9.31 µM.

For the compound `CC(=O)OC[C@]1(C(=O)C(O)c2ccoc2)[C@H](C)CC[C@@]23COC(=O)C2=CCC[C@@H]31` (stereo partly drawn), the TGI in [1], in test [2], in test [3], in [4], in test [5] and in [6] was > 10 µM in each case. For the same compound, the TGI in [7], in [8], in test [9] and in test [10] was > 10 µM throughout.

For the compound `N#Cc1nc(-c2cc([N+](=O)[O-])cc([N+](=O)[O-])c2)oc1N`, the TGI in test [1], in [2], in test [3], in [4], in test [5] and in test [6] was > 10 µM each time. Also, the TGI in test [7], in [8], in test [9] and in test [10] was > 10 µM each time.

With `COc1cc2c(cc1OCCCCOc1cc(-c3ccc(F)cc3)nc(C)n1)N=C[C@@H]1CCCN1C2=O`, the TGI in test [1] stood at 2.26 µM; in test [2], 0.689 µM; in [3], 5.18 µM; in test [4], 12.2 µM; in [5], 3.92 µM; in test [6] it was 7.55 µM. Moreover, the TGI was found to be 2.79 µM in [7], 4.75 µM in [8], 50 µM in test [9] and 6.6 µM in [10].

For `CC1(C)O[C@@H]2COC(=O)[C@@H]2O1`, the TGI in [1], in test [2], in [3], in test [4], in test [5] and in test [6] was > 100 µM throughout. The TGI in [7], in test [8], in test [9] and in test [10] was > 100 µM in each case.

With `C=C1C(=O)OC2/C=C(\CO)C(OC(C)=O)CC(O)/C(C)=C/C(OC(=O)C(C)CC)C12` (stereo not drawn), the TGI is > 100 µM in test [1]; 52.7 µM and 30.4 µM in test [2]; 54.5 µM and 61.5 µM in [3]; > 100 µM in test [4]; 46.6 µM and 35.5 µM in [5]; 36 µM and 36.6 µM in [6]. Besides, the TGI was > 100 µM in test [7]; > 100 µM in [8]; 43.8 µM in test [9]; 36.4 µM and 52.1 µM in test [10].

For the compound `CCOC(=O)c1[nH]cc(C)c1-c1ccn(-c2ccccc2)c1`, the TGI in test [1] was > 100 µM; in test [2], > 100 µM; in test [3], > 100 µM; in [4] it was 55.9 µM; in test [5] it was > 100 µM; in test [6], > 100 µM. Also, the TGI in [7], in test [9] and in test [10] was > 100 µM in each case.

For `COc1ccc2c(c1)O/C(=C\c1cccc(OCC(=O)Nc3nc4c(s3)CCCC4)c1)C2=O`, the TGI in test [1] is > 43.2 µM; in [2], > 100 µM; in test [3] it was > 100 µM; in [4], 2.17 µM; in test [5] it was > 100 µM; in test [6], > 100 µM. Also, the TGI is > 100 µM in test [7], > 100 µM in test [8], 19.7 µM in [9] and > 70.4 µM in test [10]. Moreover, the GI50 is > 100 µM in test [2]; > 66.3 µM in test [3]; 0.692 µM in test [4]; 25.1 µM in test [5]; 4.78 µM in test [6]; 35.1 µM in [7]. Also, the GI50 in test [8] is 44.6 µM; in test [9] it was 5.01 µM; in [10], > 21.7 µM.

In the case of `Oc1ccc(-c2nnc3sc(-c4ccc(F)cc4)nn23)cc1`, the GI50 in [1] was 18.1 µM; in [2] it was > 100 µM; in [3] it was 70.8 µM; in test [4], 55.8 µM; in test [5], > 100 µM; in test [6] it was 42.5 µM. Moreover, the GI50 in test [7] is 16.1 µM; in test [8], 21.3 µM; in test [9], 51.2 µM; in [10] it was 48.3 µM. Also, the TGI was 59.9 µM in [1]; > 100 µM in [2]; > 100 µM in test [3]; > 100 µM in test [4]; > 100 µM in [5]; > 100 µM in test [6]. Further, the TGI in test [7] is 40.2 µM; in test [8] it was > 100 µM; in [9], > 100 µM; in test [10], > 100 µM.

On to `COc1ccc(Nc2nc3ccc(C(F)(F)F)cc3nc2C(=O)O)cc1OC`, for which the TGI in [1] is 77.6 µM; in [2], 43.7 µM; in [3], > 100 µM; in [4], > 100 µM; in [5], > 100 µM; in test [6] it was > 100 µM. Also, the TGI was 96.6 µM in test [7], > 100 µM in test [8], > 100 µM in test [9] and > 100 µM in test [10].

Regarding `O=C(NC(Cc1c[nH]c2ccccc12)C(=O)O)/C(=C/c1ccccc1O)NC(=O)c1ccccc1` (stereo not drawn), the TGI in test [1] was 37 µM; in test [2], > 100 µM; in test [3], > 100 µM; in test [4] it was > 100 µM; in test [5], > 100 µM; in test [6] it was 63.9 µM. Besides, the TGI was 73.3 µM in [7], > 100 µM in test [8], > 100 µM in [9] and 28.9 µM in [10].

As for `C=C1[C@@H](O)C[C@@]23CC[C@@H]4[C@@]5(C)CC[C@@H](OC(C)=O)C(C)(C)[C@@H]5C[C@@H](OC5OC(COC(C)=O)C(O)C(O)C5O)[C@@]4(C)C2=CC[C@H]3[C@H]1C` (stereo partly drawn), the TGI is 14.8 µM in test [1]; 3.88 µM in test [2]; 25.9 µM in test [3]; 15 µM in test [4]; 4.75 µM in [5]; 21 µM in test [6]. For the same compound, the TGI in test [7] was 22.4 µM; in [8], 17.5 µM; in test [9], 22.6 µM; in test [10] it was 21.8 µM.

`CCSC1=CC(=O)c2nc3ccccc3c3ccnc1c23`: the TGI in test [1] was 31 µM; in test [2] it was 25 µM; in [3], 7.59 µM; in [4], 9.4 µM; in [5] it was 16.9 µM; in test [6], 8.43 µM. Besides, the TGI in test [7] is 14.7 µM; in test [8], > 87.1 µM; in [9] it was 15.5 µM; in [10] it was > 100 µM.

With `CCN(CC)CCOC(NC(C)=O)(c1ccccc1)c1ccccc1`, the TGI in test [1], in test [2], in test [3], in test [4], in test [5] and in [6] was > 100 µM each time. For the same compound, the TGI in [7], in [8], in test [9] and in test [10] was > 100 µM in each case.

In the case of `O=[N+]([O-])C(=C(N1CCCCC1)N1CCCCC1)/C(Cl)=C(\Cl)Br`, the TGI was > 100 µM in test [1]; 32.3 µM in test [2]; 37.1 µM in [3]; 90.8 µM in test [4]; > 100 µM in [5]; > 100 µM in [6]. The TGI in test [7] was 45.4 µM; in test [8] it was 87.1 µM; in test [9], > 100 µM; in test [10], 35 µM.

In the case of `Cc1cn2c(/C=C3/C(=O)Nc4cccc(Cl)c43)c(Cl)nc2s1`, the TGI in test [1] was > 100 µM; in test [2] it was 76.5 µM; in test [3], > 100 µM; in test [4] it was > 100 µM; in test [5], > 100 µM; in test [6] it was > 100 µM. For the same compound, the TGI was 42.5 µM in test [7], > 100 µM in test [8], > 100 µM in test [9] and > 100 µM in [10].

For the compound `COC(=O)NN(C(=O)OC)c1c(-c2ccccc2)nc(SC)n1N`, the TGI in test [1], in test [2], in [3], in test [4], in [6] and in test [7] was > 100 µM in each case. The TGI in test [8], in [9] and in test [10] was > 100 µM in each case.

For the compound `C=C(Cl)/C(=C\Cl)CCC(Br)C(C)C` (stereo not drawn), the TGI in [1], in test [2], in test [3], in [4], in test [5] and in [6] was > 100 µM throughout. In addition, the TGI in test [7], in test [8] and in test [9] was > 100 µM throughout.

On to `O=C(CN1CCCCC1)CC(O)(C(F)(F)F)C(F)(F)F`, for which the TGI in [1], in [2], in test [3], in test [4], in test [5] and in [7] was > 100 µM throughout. The TGI in test [8], in test [9] and in test [10] was > 100 µM in each case.

Consider `COc1cccc(-c2cc(=O)c3c(C)cc(C)nc3[nH]2)c1`, for which the TGI is > 73.6 µM in [1]; 6.19 µM in [2]; > 100 µM in [3]; > 67.4 µM in test [4]; > 100 µM in [6]; > 100 µM in test [7]. Further, the TGI was > 100 µM in test [8], > 72.1 µM in test [9] and > 100 µM in [10].

Take `COC(=O)c1ccccc1/C=C1/Cc2ccccc2C1=O`: the TGI was > 100 µM in test [1]; > 100 µM in test [2]; > 100 µM in [3]; 88.7 µM in [4]; > 100 µM in test [5]; 36.5 µM in test [6]. The TGI is 97.3 µM in test [7], > 100 µM in test [9] and > 100 µM in [10].

`COc1ccc(/C(=N/O)c2ccccc2-c2nc3ccccc3c(=O)n2-c2ccc(S(=O)(=O)Nc3ncccn3)cc2)cc1C`: the TGI is 27.9 µM in test [1]; 21.7 µM in test [2]; > 31.6 µM in [3]; > 31.6 µM in [4]; > 31.6 µM in test [6]; > 100 µM in test [7]. The TGI in test [8], in [9] and in [10] was > 31.6 µM in each case.

For the origin of these results see PubChem BioAssay (NCI).
